Experimental data as given in the supplement of paper PMC10307832.

How the values were obtained:
Assay in all cases: relative viability (nuclei count vs DMSO), 5 days (fraction); higher = more cells survive
4EGI-1 + Palbociclib = compound: O=C(O)C(Cc1ccccc1[N+](=O)[O-])=NNc1nc(-c2ccc(Cl)c(Cl)c2)cs1 (mixture of isomers) [4EGI-1] + CC(=O)c1c(C)c2cnc(Nc3ccc(N4CCNCC4)cn3)nc2n(C2CCCC2)c1=O [Palbociclib] (partner 0.5 µM)
Procedure, shortened: (§1)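 Relative viability equals treated-well nuclei counts divided by vehicle-well nuclei counts. Counts came from 4× images of lung cancer cell lines grown in 1536-well plates for 5 days after pin-tool dosing on the day after seeding. Dosing used one drug alone or a fixed anchor-drug dose plus five library-drug doses (not always all listed) in √10 steps, and values are medians of duplicate plates.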

4EGI-1 + Decitabine = compound: O=C(O)C(Cc1ccccc1[N+](=O)[O-])=NNc1nc(-c2ccc(Cl)c(Cl)c2)cs1 (mixture of isomers) [4EGI-1] + Nc1ncn([C@H]2C[C@H](O)[C@@H](CO)O2)c(=O)n1 [Decitabine] (partner 2 µM)
Procedure, shortened: as §1

XMD8-85 + Crizotinib = compound: CN1CCN(CC1)C2=CC(=C(C=C2)NC3=NC=C4C(=N3)N(C5=CC=CC=C5C(=O)N4C)C)OC [XMD8-85] + C[C@@H](Oc1cc(-c2cnn(C3CCNCC3)c2)cnc1N)c1c(Cl)ccc(F)c1Cl [Crizotinib] (partner 1 µM)
Procedure, shortened: as §1

XMD8-85 + Linsitinib = compound: CN1CCN(CC1)C2=CC(=C(C=C2)NC3=NC=C4C(=N3)N(C5=CC=CC=C5C(=O)N4C)C)OC [XMD8-85] + C[C@]1(O)C[C@@H](c2nc(-c3ccc4ccc(-c5ccccc5)nc4c3)c3c(N)nccn32)C1 [Linsitinib] (partner 1 µM)
Procedure, shortened: as §1

| Cell Line | relative viability (4EGI-1 + Palbociclib; first compound 0.5 µM) | relative viability (4EGI-1 + Palbociclib; first compound 1.581 µM) | relative viability (4EGI-1 + Palbociclib; first compound 5 µM) | relative viability (4EGI-1 + Palbociclib; first compound 15.81 µM) | relative viability (4EGI-1 + Palbociclib; first compound 50 µM) | relative viability (4EGI-1 + Decitabine; first compound 0.5 µM) | relative viability (4EGI-1 + Decitabine; first compound 5 µM) | relative viability (4EGI-1 + Decitabine; first compound 15.81 µM) | relative viability (4EGI-1 + Decitabine; first compound 50 µM) | relative viability (XMD8-85 + Crizotinib; first compound 0.08 µM) | relative viability (XMD8-85 + Crizotinib; first compound 0.253 µM) | relative viability (XMD8-85 + Crizotinib; first compound 0.8 µM) | relative viability (XMD8-85 + Crizotinib; first compound 2.53 µM) | relative viability (XMD8-85 + Crizotinib; first compound 8 µM) | relative viability (XMD8-85 + Linsitinib; first compound 0.08 µM) | relative viability (XMD8-85 + Linsitinib; first compound 0.253 µM) | relative viability (XMD8-85 + Linsitinib; first compound 0.8 µM) | relative viability (XMD8-85 + Linsitinib; first compound 2.53 µM) | relative viability (XMD8-85 + Linsitinib; first compound 8 µM) | relative viability (4EGI-1 + Decitabine; first compound 1.581 µM) |
| --- | --- | --- | --- | --- | --- | --- | --- | --- | --- | --- | --- | --- | --- | --- | --- | --- | --- | --- | --- | --- |
| RERF-LC-KJ | 1.09 | 0.481 | 0.953 | 0.882 | 0.625 | 0.828 | 0.609 | 0.444 | 0.285 | 0.881 | 0.751 | 0.807 | 0.817 | 0.658 | 0.826 | 0.903 | 0.881 | 0.804 | 0.883 | – |
| LOU-NH91 | 0.493 | – | 0.519 | 0.581 | 0.52 | 0.841 | 0.815 | 0.658 | 0.686 | 0.749 | 0.741 | 0.728 | 0.725 | 0.67 | 0.946 | 0.979 | 0.909 | 0.914 | 0.751 | – |
| HCC-15 | 0.677 | 0.747 | 0.788 | 0.679 | 0.292 | 0.89 | 0.675 | 0.527 | 0.217 | 0.852 | 0.859 | 0.855 | 0.806 | 0.592 | 0.867 | 0.849 | 0.843 | 0.866 | 0.661 | 0.723 |
| NCI-H23 | 0.541 | – | 0.614 | 0.393 | 0.272 | 0.331 | 0.337 | 0.45 | 0.2 | 0.4 | 0.434 | 0.472 | 0.387 | 0.217 | 0.545 | 0.611 | 0.547 | 0.513 | – | – |
| HCC-78 | 0.471 | 0.462 | 0.434 | 0.432 | 0.488 | 0.768 | 0.729 | 0.621 | 0.725 | 0.363 | 0.364 | 0.304 | 0.37 | 0.295 | 0.594 | 0.532 | 0.445 | 0.443 | 0.382 | – |
| LC-2-ad | 0.49 | 0.514 | 0.469 | 0.417 | 0.305 | 0.876 | 0.742 | 0.587 | 0.444 | 0.442 | 0.446 | 0.462 | 0.444 | 0.303 | 0.905 | 0.923 | 0.836 | 0.692 | 0.452 | 0.859 |
| HCC-44 | 1 | 0.813 | 0.907 | 0.862 | 0.681 | 0.964 | 0.936 | 0.924 | 0.432 | 0.795 | 0.769 | 0.821 | 0.802 | 0.301 | 0.714 | 0.749 | 0.642 | 0.499 | 0.346 | 0.905 |
| HCC-366 | 0.396 | 0.224 | 0.396 | 0.272 | 0.0604 | 0.364 | 0.549 | 0.256 | 0.0833 | 0.388 | – | 0.586 | 0.481 | 0.136 | 0.69 | 0.687 | 0.764 | – | 0.352 | 0.29 |
| PC-14 | 0.559 | – | 0.659 | 0.188 | 0.0675 | 0.227 | 0.222 | 0.13 | 0.0662 | 0.867 | 0.874 | 0.834 | 0.972 | 0.722 | 1.06 | 0.849 | 0.914 | 0.843 | 0.86 | – |
| NCI-H647 | 0.53 | 0.302 | 0.455 | 0.303 | 0.0557 | 0.433 | 0.391 | 0.218 | 0.155 | 1.12 | 1.1 | 1.05 | 1.14 | 0.213 | 1.29 | 1.35 | 1.55 | 0.862 | 0.634 | 0.309 |
| 201T | 0.365 | 0.358 | 0.364 | 0.316 | 0.31 | 0.871 | 0.886 | 0.826 | 0.615 | 1.02 | 1.04 | 1.03 | 1.03 | 0.949 | 1 | 1.05 | 0.994 | 1.05 | 1.01 | 0.859 |
| PC-3 [JPC-3] | 0.472 | – | 0.573 | 0.472 | 0.458 | 0.95 | 0.771 | 0.498 | 0.53 | 0.827 | 1.12 | 1.01 | 1.09 | 0.986 | 0.958 | 0.994 | 1.02 | 1.09 | – | – |
| HCC-827 | 0.521 | 0.403 | 0.565 | – | 0.5 | 0.263 | 0.344 | – | 0.219 | – | 0.919 | 0.942 | 0.944 | 0.856 | 0.934 | 0.975 | 1.02 | 0.97 | 0.974 | 0.31 |
| EPLC-272H | 0.317 | – | 0.367 | 0.274 | 0.301 | 0.45 | 0.359 | 0.31 | 0.305 | – | 0.678 | 1.03 | 0.947 | 0.691 | – | 1.24 | 1.02 | 1.2 | 0.912 | – |
| NCI-H2087 | 0.281 | 0.243 | 0.244 | 0.163 | 0.16 | 0.376 | 0.258 | 0.218 | 0.158 | 0.821 | 0.857 | 0.994 | 0.994 | 0.674 | 0.929 | 1.01 | 1.09 | 1.06 | 0.7 | 0.338 |
| HARA | 0.32 | 0.243 | 0.295 | 0.222 | 0.202 | 0.446 | 0.692 | 0.366 | 0.167 | 1.21 | 0.885 | 1.3 | 0.94 | 0.417 | 1.06 | 0.933 | 0.945 | 0.668 | 0.243 | 0.511 |
| UMC-11 | 0.345 | 0.34 | 0.378 | 0.365 | 0.305 | 0.731 | 0.685 | 0.624 | 0.419 | 0.656 | 0.497 | 0.638 | 0.459 | 0.237 | 1.01 | 0.922 | 1.15 | 0.848 | 0.512 | 0.609 |
